# PubChem BioAssay (NCI)
# Several values for one entry are separate records, joined by “and”; a condition that tells them apart may be missing. Identical values can stand only once.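 How tested: cells in 96-well plates exposed to compound for 48 hours at five concentrations. Here, GI50 denotes the concentration required for 50% inhibition of growth. TGI denotes the concentration required for complete inhibition of growth.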
# What was measured:
# Assay in all cases: growth of human tumour cells (NCI), 48 h
# BT-549 breast = system: BT-549 breast
# MCF7 breast = system: MCF7 breast
# MDA-MB-231 breast = system: MDA-MB-231 breast
# NCI/ADR-RES ovarian = system: NCI/ADR-RES ovarian
# T-47D breast = system: T-47D breast
# DMS 273 small cell lung = system: DMS 273 small cell lung
# LXFL 529 NSCLC = system: LXFL 529 NSCLC
# M19-MEL melanoma = system: M19-MEL melanoma
SMILES,GI50 (BT-549 breast) [µM],TGI (BT-549 breast) [µM],GI50 (MCF7 breast),TGI (MCF7 breast),GI50 (MDA-MB-231 breast),TGI (MDA-MB-231 breast),GI50 (NCI/ADR-RES ovarian),TGI (NCI/ADR-RES ovarian),GI50 (T-47D breast),TGI (T-47D breast),TGI (DMS 273 small cell lung) [µM],TGI (LXFL 529 NSCLC) [µM],TGI (M19-MEL melanoma) [µM]
CCCCCCCCCCCCCCCC[N+](C)(C)C,0.267,0.873,0.313 µM and 1.86 µM,1.44 µM and 5.2 µM,0.169 µM and 1.38 µM,0.405 µM and 3.55 µM,1.6 µM and 11.9 µM,6.53 µM and 31.6 µM,0.272 µM and 2.56 µM,1.2 µM and 9.59 µM,–,–,–
CN1CCN(c2ccc3nc(-c4ccc5nc(-c6ccc(C(F)(F)F)cc6)[nH]c5c4)[nH]c3c2)CC1,5.91,22.5,0.578 µM,2.19 µM,2.11 µM,3.85 µM,25.7 µM,> 100 µM,1.38 µM,3.33 µM,–,–,–
S=C1SC2(CCCCCC2)NC2=C1CCCCC2,–,–,–,65 µM,–,> 100 µM,–,> 100 µM,–,> 100 µM,–,–,–
O=C(O)C1(C(=O)O)CCN(S(=O)(=O)c2ccccc2)CC1,–,> 100,–,> 100 µM,–,> 100 µM,–,> 100 µM,–,> 100 µM,–,–,–
O=C1c2ccccc2C(=O)N1C/C=N/NS(=O)(=O)c1ccc(Cl)cc1,–,–,–,–,–,–,–,–,–,–,> 100,> 100,> 100
COc1cc2c3c(n(CCCn4cccn4)c(=O)c2cc1OC)-c1cc2c(cc1C3=O)OCO2,3.4,> 70,0.523 µM,> 55.2 µM,8.65 µM,35.5 µM,1.3 µM,16.5 µM,2.2 µM,> 100 µM,–,–,–
COc1ccccc1NC(=O)N/C(N)=N/c1nc2ccccc2s1,0.334,> 100,0.0401 µM,> 100 µM,3.48 µM,> 100 µM,0.0474 µM,–,0.394 µM,> 100 µM,–,–,–
COc1cc([N+](=O)[O-])c(S(=O)(=O)O)cc1-n1nc(-c2ccccc2)n[n+]1-c1cc(S(=O)(=O)[O-])c([N+](=O)[O-])cc1OC,–,–,–,> 100 µM,–,> 100 µM,–,> 100 µM,–,> 100 µM,–,–,–
N#C/C(=C/c1cccs1)c1cccs1,–,–,> 100 µM,> 100 µM,> 100 µM,> 100 µM,> 100 µM,> 100 µM,51.5 µM,> 100 µM,–,–,–
COc1cccc(NC(=O)c2ccc(C(F)(F)F)nc2Nc2ccc(Cl)cc2C)c1,14.1,28.4,7.96 µM,47.7 µM,10.4 µM,23.3 µM,5.6 µM,20.2 µM,4.31 µM,25.1 µM,–,–,–
CCCN(CCC)c1ccc(C=O)c(OC)c1,22,80.2,19.1 µM,81.3 µM,–,–,28.9 µM,> 100 µM,12.5 µM,57.5 µM,–,–,–
CN([N-]C(=O)CC(=O)[N-]N(C)C(=S)c1ccccc1)C(=S)c1ccccc1.[Cu+2],0.138,0.271,< 0.01 µM,0.0284 µM,0.0221 µM,0.132 µM,< 0.0261 µM,0.456 µM,< 0.01 µM,0.101 µM,–,–,–
Cc1cc(C)c(S(=O)(=O)Oc2ccccc2[N+](=O)[O-])c(C)c1,3.19,> 100,2.81 µM,> 100 µM,3.7 µM,> 100 µM,1.01 µM,> 27.4 µM,4.79 µM,> 100 µM,–,–,–
COc1cc2c(C#N)n3c(c2cc1OC)C(=O)C(c1ccccc1)Oc1ccccc1-3 (stereo not drawn),1.97,5.54,–,–,4.05 µM,68.6 µM,3.05 µM,> 100 µM,–,–,–,–,–
CCc1nc2cc(/C=C/C(=O)NO)c(F)cc2c(=O)n1CCc1ccccc1,2.32,13.4,0.407 µM,15.1 µM,0.668 µM,7.97 µM,0.227 µM,2.54 µM,0.29 µM,4.95 µM,–,–,–
C=C(C)[C@@H]1CC[C@]2(C)[C@H](CC=C3[C@@H]4CC(C)(C)CC[C@]4(C(=O)OC)CC[C@]32C)[C@@]1(C)CC/C(N)=N/O,1.93,4.12,2.13 µM,5.3 µM,1.61 µM,3.24 µM,2.09 µM,5.42 µM,2.46 µM,9.77 µM,–,–,–
COc1cccc2c1C(=O)c1c(O)c3c(c(O)c1C2=O)C[C@@](O)(C(=O)COC(=O)c1cccnc1)C[C@@H]3OC1CC(N)C(O)C(C)O1 (stereo partly drawn),0.193,1.02,0.033 µM,2.08 µM,0.327 µM,1.96 µM,3.95 µM,> 100 µM,0.0982 µM,2.64 µM,–,–,–
O=C(Oc1ccccc1Cl)c1cccnc1Nc1ccnc(C(F)(F)F)c1,5.12,22.4,3.66 µM,17.5 µM,11.9 µM,46.7 µM,16.5 µM,62.8 µM,29.4 µM,> 100 µM,–,–,–
C[C@]1(O)CC(=O)[C@]2(O)C3=C(C=C[C@]2(O)C1)C(=O)c1c(O)cccc1C3=O,2.62,9.44,–,–,2.25 µM,6.6 µM,5.84 µM,40.3 µM,1.85 µM,4.57 µM,–,–,–
COc1cc(/C=C\c2cc(/C=C\c3ccc(O)c(OC)c3)n(C(=O)Nc3ccc(C(F)(F)F)cc3)n2)ccc1O,1.96,3.67,1.97 µM,10.7 µM,3.06 µM,9.62 µM,3.51 µM,> 100 µM,2.81 µM,39 µM,–,–,–
COc1ncnc2c1ncn2C/C(Br)=C(\Br)CCl,–,–,1.43 µM,3.06 µM,2.4 µM,7.28 µM,6.12 µM,18.9 µM,2.37 µM,6.84 µM,–,–,–
COc1cc(C)c(N(C)C(=O)CN(C)C)cc1Nc1nc(Nc2cccc(F)c2C(N)=O)c2cc[nH]c2n1,18.4,> 25,2.7 µM,> 25 µM,> 25 µM,> 25 µM,> 25 µM,> 25 µM,> 25 µM,> 25 µM,–,–,–
CC(C)(C)OC(=O)N(CCCn1c2c(c3ccccc3c1=O)C(=O)c1ccccc1-2)CCN(CCCn1c2c(c3ccccc3c1=O)C(=O)c1ccccc1-2)C(=O)OC(C)(C)C,> 50,> 50,21.3 µM,> 50 µM,15.3 µM,> 50 µM,> 50 µM,> 50 µM,> 50 µM,> 50 µM,–,–,–
